Experimental data taken from patent US9499509B2, “Dihydrochalcone derivatives and their use as antibiotic agents” (UNIVERSITÉ DU QUÉBEC À CHICOUTIMI, priority 2012, dated 2016).
Read-outs that look alike come from different tables or passages of the source.

How the values were obtained:
[1] = system: methicillin-resistant Staphylococcus aureus (MRSA) strains; experiment: Antibiotic assay (resazurin, Example 1), MRSA strains; format: cell-based; details: for IC50: read-out: IC50
Text: (§1) Bacteria Strain. […] The MRSA were obtained as further described below.
(§2) Antibiotic agents. Cyprofloxacin and erythromycin were provided by Sigma-Aldrich. Gentamicin sulfate and vancomycin hydrochloride were provided by Calbiochem.
Isolation and identification of methicillin-resistant Staphylococcus aureus (MRSA) strains. From March 2007 to March 2008, 35 screening swabs from nares (n=31), throat (n=3), Groin pus (n=1) were obtained from patients hospitalized at Chicoutimi hospital. Identification of S. aureus was performed using the Slidex Staph-Kit (bioMerieux Vitek, Inc., Hazelwood, Mo.) according to the manufacturer's instructions. Quality control was performed with MRSA strain ATCC 43300 and S. aureus strain ATCC 25923. In addition, S. aureus profile was determined with API Staph test strip with bacterial suspension of saline McFarland of 0.5 (bioMerieux, Durham, N.C.) according to the manufacturer's protocol. API Staph strips were held for 24 h before the results were read. A latex agglutination (SLIDEX) test detecting methicilin resistance in Staphylococci based on the production of low-affinity PBP2a, which is encoded by the mecA gene was performed on all strains. An antibiogram was also performed to confirm the identification of MRSA strains using disk diffusion test.
Antibiotic susceptibility testing using disk diffusion method. The antimicrobial activity of different classes of antibiotics of the potential MRSA was determined by diffusion method (Kirby-Bauer) as described by NCCLS. The antibiotics tested included: penicillin (10 units), amoxicillin/clavulanic acid (20/10 μg), ciprofloxacin (5 μg), moxifloxacin (5 μg), levofloxacin (5 μg), clindamycin (15 μg), erythromycin (15 μg), cefoxitin (30 μg), linezolid (30 μg), trimethoprim/sulfomethoxazole (1.25/23.75 μg), rifampicin (5 μg), gentamicin (10 μg) and vancomycin (30 μg). The agar medium had pH 7.2 to 7.4 before inoculing potentiel MRSA. The antibiotics were maintained at 8° C. or lower −14° C. according to manufacturer's recommendations. The pure culture was inoculated on a non-selective plate for 18-24 h. Each colony was collected with a wire loop and transfered the growth to a tube containing 4 to 5 mL of a tryptic-soy broth. The inoculum density was standarized with BaSO4 using 0.5 McFarland standard. All strains were incubated at 37° C. until it achieves or exceeds the turbidity of 0.5 McFarland standard. Inoculation of the dried surface (Muller-Hinton agar plate) by streaking the swab over the entire sterile agar surface. This procedure was repeated two more times. After 15 min, the appropriate disk were applied on the surface with a sterile forceps. The inverted plates was placed in a incubator at 37° C./air/16 to 18 h or 24 h for vancomycin. The inhibition zones were measured with a millimetric ruler. Interpretation of zone sizes by references of the manufacturer. Quality control organisms used were ATCC strains number 25923.
(§3) MRSA. Ten (10) strains of MRSA obtained as described above were tested along with an S. aureus wild type (WT) strain (ATCC25923).

[2] = system: S. aureus wild type strain (ATCC 25923); experiment: Antibiotic assay (resazurin, Example 1), S. aureus wild type; format: cell-based, Staphylococcus aureus
Experimental: as §1, §2, §3

S. aureus = experiment: Antibiotic assay (resazurin, Example 1), S. aureus strains of Table 3; format: cell-based, Staphylococcus aureus; details: for IC50: read-out: IC50
Text: as §1, §2

Enterococcus faecalis = experiment: Antibiotic assay (resazurin, Example 1), Enterococcus faecalis; format: cell-based; details: for IC50: read-out: IC50
Experimental: as §1, §2
(§4) Five additional strains were tested: Streptococcus pneumoniae, Streptococcus agalactiae, Streptococcus pyogenes, Enterococcus faecalis and Corynebacterium jeikeium.

Corynebacterium jeikeium = experiment: Antibiotic assay (resazurin, Example 1), Corynebacterium jeikeium; format: cell-based; details: Coryne. jeikeium 14139
Experimental: as §1, §2, §4

Streptococcus pyogenes = experiment: Antibiotic assay (resazurin, Example 1), Streptococcus pyogenes; format: cell-based; details: for IC50: read-out: IC50
Experimental: as §1, §2, §4

Streptococcus agalactiae = experiment: Antibiotic assay (resazurin, Example 1), Streptococcus agalactiae; format: cell-based; details: for IC50: read-out: IC50
Experimental: as §1, §2, §4

WS-1 cell lines = experiment: Cytotoxicity assay on WS-1 (Example 1); details: Table 5; WS-1, 48 h
Experimental: Cytotoxicity assay. The cytotoxicity assay was performed in 96-well plates (BD Falcon). The WS-1 cell lines were provided by ATCC. The WS-1 was cultured in DMEM+10% fetal calf serum. The cells were plated in a volume of 100 μL at a density of 5000 cells per well and incubated at 37° C.+5% CO2 for 24 h to promote cell adhesion.
The plates were incubated at 37° C.+5% CO2 for 48 h. The cells were then washed with 100 μL of HBSS and 150 μL of a 2% resazurin were added to the wells.
The therapeutic index is the ratio between the toxicity on normal cells, in this case fibroblast, and the toxicity on bacteria.

S. epidermidis = experiment: Antibiotic assay (resazurin, Example 1), S. epidermidis strains

Compound: COc1ccc(CCC(=O)c2c(O)cc(O)c(C/C=C/c3ccc(O)cc3)c2O)cc1 [Compound II]
- Minimum Inhibitory Concentration (MIC) ([1]; MRSA 1): (5.34) μM
- IC50 ([1]; MRSA 1): 2500 ± 200 nM
- Minimum Inhibitory Concentration (MIC) ([1]; MRSA 2): (5.57) μM
- IC50 ([1]; MRSA 2): 2600 ± 200 nM
- Minimum Inhibitory Concentration (MIC) ([1]; MRSA 3): (5.29) μM
- IC50 ([1]; MRSA 3): 2600 ± 200 nM
- Minimum Inhibitory Concentration (MIC) ([1]; MRSA 4): (4.61) μM
- IC50 ([1]; MRSA 4): 2400 ± 100 nM
- Minimum Inhibitory Concentration (MIC) ([1]; MRSA 5): (4.86) μM
- IC50 ([1]; MRSA 5): 2300 ± 400 nM
- Minimum Inhibitory Concentration (MIC) ([1]; MRSA 6): (5.22) μM
- IC50 ([1]; MRSA 6): 2300 ± 200 nM
- Minimum Inhibitory Concentration (MIC) ([1]; MRSA 7): (4.34) μM
- IC50 ([1]; MRSA 7): 2500 ± 200 nM
- Minimum Inhibitory Concentration (MIC) ([1]; MRSA 8): (4.84) μM
- IC50 ([1]; MRSA 8): 2300 ± 200 nM
- Minimum Inhibitory Concentration (MIC) ([1]; MRSA 9): (5.26) μM
- IC50 ([1]; MRSA 9): 2500 ± 200 nM
- Minimum Inhibitory Concentration (MIC) ([1]; MRSA 10): (5.07) μM
- IC50 ([1]; MRSA 10): 3200 ± 200 nM
- Minimum Inhibitory Concentration (MIC) ([2]; S. aureus WT (ATCC 25923)): (6.47) μM
- IC50 ([2]; S. aureus WT (ATCC 25923), read-out: IC50): 2700 ± 700 nM
- IC50 ([2]; Table 5, same values as IC50 of Table 2, read-out: S. aureus WT ATCC 25923 (toxicity on bacteria)): 2700 ± 700 nM
- Minimum Inhibitory Concentration (MIC) (S. aureus; S. aureus 14094): (6.2) μM
- IC50 (S. aureus; S. aureus 14094): 3.5 ± 0.3 µM
- Minimum Inhibitory Concentration (MIC) (S. aureus; S. aureus 14108): (6.81) μM
- IC50 (S. aureus; S. aureus 14108): 3.3 ± 0.2 µM
- Minimum Inhibitory Concentration (MIC) (S. aureus; S. aureus 14118): (5.05) μM
- Minimum Inhibitory Concentration (MIC) (S. aureus; S. aureus 14154): (4.88) μM
- IC50 (S. aureus; S. aureus 14154): 2 ± 0.1 µM
- Minimum Inhibitory Concentration (MIC) (Enterococcus faecalis; Ent. Faecalis 14078): (>200) μM
- IC50 (Enterococcus faecalis; Ent. Faecalis 14078): > 200 µM
- Minimum Inhibitory Concentration (MIC) (Enterococcus faecalis; Ent. Faecalis 14115): (>200) μM
- IC50 (Enterococcus faecalis; Ent. Faecalis 14115): > 200 µM
- activity against Enterococcus faecalis (Enterococcus faecalis; in words): No activity
- Minimum Inhibitory Concentration (MIC) (Corynebacterium jeikeium): (112) μM
- Minimum Inhibitory Concentration (MIC) (Streptococcus pyogenes; Strep. pyogenes 14149): (>200) μM
- IC50 (Streptococcus pyogenes; Strep. pyogenes 14149): > 200 µM
- Minimum Inhibitory Concentration (MIC) (Streptococcus pyogenes; Strep. pyogenes 14152): (>200) μM
- IC50 (Streptococcus pyogenes; Strep. pyogenes 14152): 90 ± 7 µM
- activity against Streptococcus pyogenes strain 14152 (Streptococcus pyogenes; in words): active
- Minimum Inhibitory Concentration (MIC) (Streptococcus agalactiae; Strep. agalactiae 14150): (>200) μM
- IC50 (Streptococcus agalactiae; Strep. agalactiae 14150): 169 ± 3 µM
- Minimum Inhibitory Concentration (MIC) (Streptococcus agalactiae; Strep. agalactiae 14151): (>200) μM
- IC50 (Streptococcus agalactiae; Strep. agalactiae 14151): > 200 µM
- Minimum Inhibitory Concentration (MIC) (Streptococcus agalactiae; Strep. agalactiae 14153): (>200) μM
- IC50 (Streptococcus agalactiae; Strep. agalactiae 14153): > 200 µM
- activity against Streptococcus agalactiae strain 14150 (Streptococcus agalactiae; in words): active
- WS-1 (toxicity on normal cells, fibroblast) (WS-1 cell lines): 27 ± 4
- IC50 (S. epidermidis; S. epidermidis 14069): 5 ± 0.3 µM
- Minimum Inhibitory Concentration (MIC) (S. epidermidis; S. epidermidis 14069): (12.7) μM
- IC50 (S. epidermidis; S. epidermidis 14085): 4.4 ± 0.3 µM
- Minimum Inhibitory Concentration (MIC) (S. epidermidis; S. epidermidis 14085): (14.3) μM
- IC50 (S. epidermidis; S. epidermidis 14093): 7 ± 0.3 µM
- Minimum Inhibitory Concentration (MIC) (S. epidermidis; S. epidermidis 14093): (11.2) μM
- IC50 (S. epidermidis; S. epidermidis 14134): 3.8 ± 0.6 µM
- Minimum Inhibitory Concentration (MIC) (S. epidermidis; S. epidermidis 14134): (13.5) μM
- IC50 (S. epidermidis; S. epidermidis 14143): 5.8 ± 0.2 µM
- Minimum Inhibitory Concentration (MIC) (S. epidermidis; S. epidermidis 14143): (10.9) μM
- activity on S. epidermidis compared with ciprofloxacin (S. epidermidis; in words): more active than ciprofloxacin
